Data from US11773127B2, “Compounds and methods for treating bacterial infections” (Washington University, priority 2017, dated 2023).
Where two headings read alike, the source gives them in different places.

Biological target: T1, FmlHLD (Escherichia coli, UniProt P77588)
T1 construct: 6xHis (C); made in house; host or cells: E. coli C600, periplasm, pTRC99a
Assay: biochemical
Format: binding, E. coli
Settings: for PI100 (percent inhibition): galactoside at 100 μM, 100 µM; for inhibitory potency against FmlH, in words: ELISA-based competition assay
Protocol: Thereafter, wells were incubated with 200 μl blocking buffer (PBS+1% BSA) for 2 hours at 23° C., followed by incubation with 100 μl biotinylated FmlHLD diluted in blocking buffer to 20 μg/ml in the presence or absence of the tested compounds for 1 hr at 23° C. After washing 3× with PBS+0.05% TWEEN-20, 100 μl Streptavidin-HRP conjugate (BD Biosciences; 1:2000 dilution in blocking buffer) was added to each well for 1 hr at 23° C. After a final round of washing, plates were developed with 100 μl Tetramethylbenzidine (TMB, BD Biosciences) substrate, quenched within 1-2 min with 50 μl […], and absorbance measured at 450 nm.
Select top hit compounds and few low-scoring analogs from the virtual screening, as well as synthetic galactosides, were tested in the ELISA-based competition assay for their ability to inhibit binding of FmlHLD to ds-BSM. The ELISA assay was performed using the protocol described in Example 18. […] All compounds were tested at 100 μM; a subset was tested at 10 μM; and the strongest subset was additionally tested at 1 μM. […] Percent inhibition (PI) values are reported as the mean with standard error of the mean for galactosides tested at 100 μM (PI100), 10 μM (PI10), and 1 μM (PI1) in the ELISA-based competition assay. […] The “thio” designation indicates a sulfur linkage between the sugar and the aglycone group, the “phospho” designation indicates a phosphate group attached the C6-hydroxyl group on the sugar, and the “uro” designation indicates galacturonide as the sugar.
The ELISA assay was performed using the protocol described in Example 18. All compounds were tested at 1 μM and a subset was additionally tested at 100 nM. Average percent inhibition (PI) values are reported for compounds tested at 1 μM (PI1) and 100 nM (PI0.1).
Briefly, 1 μg bovine submaxillary mucin (Sigma) in 100 uL PBS were incubated with Immulon 4HBX 96-well plates overnight prior to treatment with 1 mU Arthrobacter ureafaciens sialidase for 1 hour at 37° C. to remove terminal sialic acid sugars. Wells were then blocked with 200 μL PBS+1% BSA for 2 hours at room temperature. Biotinylated FmlH^LD was diluted to 20 μg/mL in blocking buffer and incubated in the presence or absence of compounds serially diluted 2× down eight rows for 1 hour at room temperature. Wells were washed three times with PBS 0.05% TWEEN-20 then incubated with 100 μL of streptavidin-HRP conjugate (BD Biosciences; 1:2,000 dilution in blocking buffer) for one hour. After three additional PBS+0.05% TWEEN washes, plates were developed with 100 μL of tetramethylbenzidine (BD Biosciences) substrate and quenched with 50 μL of 1 M H2SO4. Total bound portion concentration was measured by the absorbance at 450 nm. IC50s were determined using the Graphpad Prism software.
The compounds synthesized herein were tested in the ELISA-based competition assay for their ability to inhibit binding of FmlHLD to ds-BSM. The ELISA assay was performed using the protocol described in Example 18. Compounds were tested at […], 1 μM, and 100 nM. as indicated on the table. […] ND means the corresponding value was not determined for this summary (but may be available elsewhere in the Examples).

[1] = mean with standard error of the mean
[2] = read-out: PI1 (percent inhibition), galactoside at 1 μM, mean with standard error of the mean
[3] = read-out: PI10 (percent inhibition), galactoside at 10 μM, mean with standard error of the mean
[4] = read-out: PI100 (percent inhibition), galactoside at 100 μM, mean with standard error of the mean
[5] = read-out: % Inhibition at [μM] [1], compound at 1 μM, inhibition of FmlHLD binding to ds-BSM
[6] = read-out: PI(1) (average percent inhibition), compound at 1 μM, Table 4
[7] = read-out: % Inhibition at [μM] [100], compound at 100 μM, inhibition of FmlHLD binding to ds-BSM
[8] = IC50 (μM), Table 5, Gal and GalNAc inhibition of FmlH
[9] = IC50, inhibition of FmlHLD binding to ds-BSM
[10] = read-out: % Inhibition at [μM] [10], compound at 10 μM, inhibition of FmlHLD binding to ds-BSM

T1 sequence (P77588 25-182): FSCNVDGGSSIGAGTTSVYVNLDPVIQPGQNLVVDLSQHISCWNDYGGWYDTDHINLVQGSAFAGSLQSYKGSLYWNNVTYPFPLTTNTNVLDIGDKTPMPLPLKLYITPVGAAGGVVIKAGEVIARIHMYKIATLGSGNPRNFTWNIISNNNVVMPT

`OC[C@H]1O[C@@H](Oc2ccccc2-c2ccccc2)[C@H](O)[C@@H](O)[C@H]1O` [Compound 28β, [1,1′-biphenyl]-2-yl α/β-D-galactopyranoside] was tested, and the “PI100 (percent inhibition)” value [1] was 91.1 ± 1.2%, the inhibition at 1 µM [2] was 8.1 ± 6% and the inhibition at 10 µM [3] was 31 ± 2.1%. It also gave an inhibition at 100 µM [4] of 91%.
For `CC(=O)N[C@@H]1[C@H](Oc2cccc(C(=O)O)c2-c2cccc(NS(C)(=O)=O)c2)OC(CO)[C@H](O)[C@@H]1O` (stereo partly drawn) [Compound 3082, 6-(((2S,3S,4R,5R)-3-acetamido-4,5-dihydroxy-6-(hydroxymethyl)tetrahydro-2H-pyran-2-yl)oxy)-3′-(methylsulfonamido)-[1,1′-biphenyl]-2-carboxylic acid], the IC50 (IC50 (μM), Table 6, sulfonamides 3078-3090) was 0.13 µM.
Work on `CC(=O)N[C@H]1[C@H](Oc2cccc3cc4ccccc4nc23)O[C@H](CO)[C@H](O)[C@@H]1O` [AM2003, N-((2S,3R,4R,5R,6R)-2-(acridin-4-yloxy)-4,5-dihydroxy-6-(hydroxymethyl)tetrahydro-2H-pyran-3-yl)acetamide] yielded an inhibition at 1 µM [5] of 15.4% and an inhibition at 1 µM [6] of 15.4%.
`OC[C@H]1O[C@@H](Oc2cccc3ccncc23)[C@H](O)[C@@H](O)[C@H]1O` [EXW020a] was tested, and the inhibition at 100 µM [7] was 15.2%.
For `OC[C@H]1O[C@H](Oc2ccccc2-c2ccccc2)[C@H](O)[C@@H](O)[C@H]1O` [Compound 113f1], the inhibition at 100 µM [7] was 19.2%.
Work on `Cc1ccccc1O[C@H]1O[C@H](CO)[C@H](O)[C@H](O)[C@H]1O` [Compound 135a] yielded an inhibition at 100 µM [7] of 30%.
In the case of `CC(=O)N[C@H]1[C@H](Oc2ccccc2-c2cccc([N+](=O)[O-])c2)O[C@H](CO)[C@H](O)[C@@H]1O` [AM2030, N-((2S,3R,4R,5R,6R)-4,5-dihydroxy-6-(hydroxymethyl)-2-((3′-nitro-[1,1′-biphenyl]-2-yl)oxy)tetrahydro-2H-pyran-3-yl)acetamide], the “inhibitory potency against FmlH, in words” value (“inhibitory potency” below) is reported as “equal or slightly reduced potency”, the IC50 [8] is reported as 2.66 µM and the inhibition at 1 µM [5] is reported as 9.25%. It also gave an inhibition at 1 µM [6] of 9.25%.
For `CS(=O)(=O)Nc1cccc(-c2ccccc2O[C@@H]2O[C@H](CO)[C@H](O)[C@H](O)[C@H]2O)c1` [AM2043, N-(2′-(((2S,3R,4S,5R,6R)-3,4,5-trihydroxy-6-(hydroxymethyl)tetrahydro-2H-pyran-2-yl)oxy)-[1,1′-biphenyl]-3-yl)methanesulfonamide], the “inhibitory potency” value was “loss in activity relative to 29β-NAc”, the IC50 [8] was 1.11 µM and the IC50 [9] was 1.11 µM. The inhibition at 0.1 µM (read-out: % Inhibition at [μM] [0.1], compound at 0.1 μM (100 nM), inhibition of FmlHLD binding to ds-BSM) was 1.6%, the inhibition at 1 µM [5] was 49.8% and the inhibition at 0.1 µM (read-out: PI (0.1) (average percent inhibition), compound at 100 nM, Table 4) was 1.6%. It also gave an inhibition at 1 µM [6] of 49.8%.
Molecule `COc1cccc(O[C@@H]2O[C@H](CO)[C@H](O)[C@H](O)[C@H]2NC(C)=O)c1-c1cccc(NS(C)(=O)=O)c1` [AM2082] has an IC50 [9] of 0.151 µM.
`CC(=O)N[C@H]1[C@H](Oc2ccccc2-c2cccc(C(F)(F)F)c2)O[C@H](CO)[C@H](O)[C@@H]1O` [AM2037, N-((2S,3R,4R,5R,6R)-4,5-dihydroxy-6-(hydroxymethyl)-2-((3′-(trifluoromethyl)-[1,1′-biphenyl]-2-yl)oxy)tetrahydro-2H-pyran-3-yl)acetamide] was tested, and the “inhibitory potency” value was “equal or slightly reduced potency”, the IC50 [8] was 1.51 µM and the inhibition at 1 µM [5] was 15.7%. It also gave an inhibition at 1 µM [6] of 15.7%.
Work on `OC[C@H]1O[C@H](Oc2ccc(-c3ccccc3)cc2)[C@H](O)[C@@H](O)[C@H]1O` [Compound 114bf1] yielded an inhibition at 10 µM [10] of 22.6% and an inhibition at 100 µM [7] of 86.5%.
`OC[C@H]1O[C@@H](Oc2ccc(-c3ccccc3)cc2)[C@H](O)[C@@H](O)[C@H]1O` [Compound 32β, [1,1′-biphenyl]-4-yl α/β-D-galactopyranoside] was tested, and the inhibition at 100 µM [4] was 30%.
Work on `Nc1ccc(O[C@@H]2O[C@H](CO)[C@H](O)[C@H](O)[C@H]2O)cc1` [4-amino-phenyl Gal, reference compound] yielded an inhibition at 10 µM [10] of 9.8% and an inhibition at 100 µM [7] of 65.1%.
With `Cc1c(C)c2ccc(O[C@@H]3O[C@H](CO)[C@H](O)[C@H](O)[C@H]3O)cc2oc1=O` [Compound 14β] the “PI100 (percent inhibition)” value [1] was 89.2 ± 0.4%, the inhibition at 1 µM [2] was 10.2 ± 4.3% and the inhibition at 10 µM [3] was 19.8 ± 3.8%. The inhibition at 100 µM [4] was 89%.
`OC[C@H]1O[C@H](Oc2cccc3ccccc23)[C@H](O)[C@@H](O)[C@H]1O` [Compound 115af1] gave an inhibition at 100 µM [7] of 28.1%.
With `Cc1cc(=O)oc2c(F)c(O[C@@H]3O[C@H](CO)[C@H](O)[C@H](O)[C@H]3O)c(F)cc12` [Compound 13β] the “PI100 (percent inhibition)” value [1] was 49.7 ± 4.5%, the inhibition at 10 µM [3] was 0.8 ± 3.1% and the inhibition at 100 µM [4] was 50%.
Work on `CC(=O)N[C@H]1[C@H](Oc2ccccc2[N+](=O)[O-])O[C@H](CO)[C@H](O)[C@@H]1O` [ONPG-NAc] yielded an inhibition at 1 µM [5] of 22.4%, an inhibition at 10 µM [10] of 87.2% and an inhibition at 100 µM [7] of 99.4%.
In the case of `CC(=O)N[C@H]1[C@H](Oc2ccccc2-c2cccc(C#N)c2)O[C@H](CO)[C@H](O)[C@@H]1O` [AM2035, N-((2S,3R,4R,5R,6R)-2-((3′-cyano-[1,1′-biphenyl]-2-yl)oxy)-4,5-dihydroxy-6-(hydroxymethyl)tetrahydro-2H-pyran-3-yl)acetamide], the “inhibitory potency” value is reported as “equal or slightly reduced potency”, the IC50 [8] is reported as 0.97 µM and the inhibition at 1 µM [5] is reported as 20.9%. For the same molecule, the inhibition at 1 µM [6] was 20.9%.
In the case of `CC(=O)N[C@H]1[C@H](Oc2ccccc2-c2cccc(O)c2)O[C@H](CO)[C@H](O)[C@@H]1O` [AM2021, N-((2S,3R,4R,5R,6R)-4,5-dihydroxy-2-((3′-hydroxy-[1,1′-biphenyl]-2-yl)oxy)-6-(hydroxymethyl)tetrahydro-2H-pyran-3-yl)acetamide], the “inhibitory potency” value is reported as “equal or slightly reduced potency”, the IC50 [8] is reported as 0.7 µM and the inhibition at 1 µM [5] is reported as 17.7%. For the same molecule, the inhibition at 1 µM [6] was 17.7%.
Molecule `OC[C@H]1O[C@H](Oc2ccccc2-c2ccccc2)[C@H](O)[C@@H](O)[C@H]1O` [Compound 28α, [1,1′-biphenyl]-2-yl α/β-D-galactopyranoside] has an inhibition at 100 µM [4] of 19.2 ± 3%.
With `CC(=O)N[C@H]1[C@@H](Oc2ccc([N+](=O)[O-])cc2)O[C@H](CO)[C@H](O)[C@@H]1O` [PNP-aGalNAc, reference compound] the “% Inhibition at [μM] [10]” value (compound at 10 μM, inhibition of FmlHLD binding to ds-BSM) was 6.29% and the “% Inhibition at [μM] [100]” value (compound at 100 μM, inhibition of FmlHLD binding to ds-BSM) was 82.04%.
Work on `CC(=O)N[C@H]1[C@H](Oc2cccc(C#N)c2-c2cccc(NS(C)(=O)=O)c2)O[C@H](CO)[C@H](O)[C@@H]1O` [AM2107] yielded an IC50 [9] of 0.109 µM.
`N#Cc1ccc(O[C@@H]2O[C@H](CO)[C@H](O)[C@H](O)[C@H]2O)cc1` [Compound 152b] gave an inhibition at 1 µM [5] of 9.47%, an inhibition at 10 µM [10] of 19.2% and an inhibition at 100 µM [7] of 85.7%.
In the case of `CC(=O)N[C@H]1[C@H](Oc2ccccc2-c2cccc(NS(=O)(=O)C(F)(F)F)c2)O[C@H](CO)[C@H](O)[C@@H]1O` [Compound 3049, N-((2S,3R,4R,5R,6R)-4,5-dihydroxy-6-(hydroxymethyl)-2-((3′-((trifluoromethyl)sulfonamido)-[1,1′-biphenyl]-2-yl)oxy)tetrahydro-2H-pyran-3-yl) acetamide], the IC50 [8] is reported as 1.17 µM.
For `N#Cc1ccc(O[C@@H]2O[C@H](CO)[C@H](O)[C@H](O)[C@H]2O)cc1` [Compound 9β, 4-cyanophenyl β-D-galactopyranoside], the “PI100 (percent inhibition)” value [1] was 85.7 ± 1.6%, the inhibition at 1 µM [2] was 9.5 ± 3.7% and the inhibition at 10 µM [3] was 19.2 ± 4.8%. For the same molecule, the inhibition at 100 µM [4] was 86%.
